Activity calls are given as the source filed them. No cut-off for these calls is given here.
What was measured:
[1] = molecular target: T1, Uracil nucleotide/cysteinyl leukotriene receptor (Homo sapiens, UniProt Q13304)
Description: Binding affinity to immobilized Halo tag-fused CysLT receptor (unknown origin) expressed in Escherichia coli BL21 (DE3) assessed as retention time by chromatography

[2] = molecular target: T1, Uracil nucleotide/cysteinyl leukotriene receptor; assay: Binding affinity to immobilized Halo tag-fused CysLT receptor (unknown origin) expressed in Escherichia coli BL21 (DE3) assessed as dissociation rate constant by receptor chromatography
[3] = molecular target: T1, Uracil nucleotide/cysteinyl leukotriene receptor; remark: listed apart in the source
Description: Binding affinity to immobilized Halo tag-fused CysLT receptor (unknown origin) expressed in Escherichia coli BL21 (DE3) assessed as association rate constant by receptor chromatography

Mus musculus [4] = assay: Anti-asthmatic activity against ovalbumin-induced asthmatic mouse model assessed as infiltration of inflammatory cells in the perivascular and peribronchiolar region of lungs at 20 mg/kg, po administered once daily for 7 days by H and E staining based light microscopic analysis; type: functional, organism-based; details: time 7.0 day
[5] = molecular target: T2, Beta-2 adrenergic receptor (Homo sapiens, UniProt P07550); assay: Binding affinity to immobilized Halo tag-fused beta2 adrenoceptor (unknown origin) expressed in Escherichia coli BL21 (DE3) assessed as retention time by chromatography
Target sequence in this assay (P07550 whole entry, looked up, the tested form may be a part): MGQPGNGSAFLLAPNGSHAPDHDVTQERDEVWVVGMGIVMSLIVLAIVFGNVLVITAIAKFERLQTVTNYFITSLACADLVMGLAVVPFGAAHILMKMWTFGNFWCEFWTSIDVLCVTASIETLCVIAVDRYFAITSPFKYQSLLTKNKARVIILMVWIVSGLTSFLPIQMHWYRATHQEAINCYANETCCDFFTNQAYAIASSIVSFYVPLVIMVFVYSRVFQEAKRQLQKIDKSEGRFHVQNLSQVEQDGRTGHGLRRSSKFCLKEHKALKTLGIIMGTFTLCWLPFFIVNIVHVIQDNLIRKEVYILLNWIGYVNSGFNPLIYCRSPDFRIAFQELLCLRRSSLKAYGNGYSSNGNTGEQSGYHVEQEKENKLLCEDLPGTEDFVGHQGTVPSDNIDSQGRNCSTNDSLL

Mus musculus [6] = assay: Increase in beta2 adrenoceptor expression in bronchus in ovalbumin-induced asthmatic mouse model at 2.6 mg/kg, po administered once daily for 7 days by Western blot analysis; type: functional, organism-based; details: time 7.0 day
Mus musculus [7] = assay: Anti-asthmatic activity against ovalbumin-induced asthmatic mouse model assessed as decrease in IL-4 level in BALF at 2.6 mg/kg, po administered once daily for 7 days by ELISA; type: functional, organism-based; details: time 7.0 day
Mus musculus [8] = assay: Anti-asthmatic activity against ovalbumin-induced asthmatic mouse model assessed as decrease in IgE level in serum at 2.6 mg/kg, po administered once daily for 7 days by ELISA; type: functional, organism-based; details: time 7.0 day
Mus musculus [9] = assay: Anti-asthmatic activity against ovalbumin-induced asthmatic mouse model assessed as infiltration of inflammatory cells in the perivascular and peribronchiolar region of lungs at 2.6 mg/kg, po administered once daily for 7 days by H and E staining based light microscopic analysis; type: functional, organism-based; details: time 7.0 day
Mus musculus [10] = assay: Anti-asthmatic activity against ovalbumin-induced asthmatic mouse model assessed as decrease in IL-5 level in BALF at 2.6 mg/kg, po administered once daily for 7 days by ELISA; type: functional, organism-based; details: time 7.0 day
[11] = molecular target: T2, Beta-2 adrenergic receptor; assay: Binding affinity to immobilized Halo tag-fused beta2 adrenoceptor (unknown origin) expressed in Escherichia coli BL21 (DE3) by receptor chromatography
Target sequence in this assay (P07550 whole entry, looked up, the tested form may be a part): as above

[12] = molecular target: T2, Beta-2 adrenergic receptor; assay: Binding affinity to immobilized Halo tag-fused beta2 adrenoceptor (unknown origin) expressed in Escherichia coli BL21 (DE3) assessed as association rate constant by receptor chromatography
Target sequence in this assay (P07550 whole entry, looked up, the tested form may be a part): as above

[13] = molecular target: T2, Beta-2 adrenergic receptor; assay: Binding affinity to immobilized Halo tag-fused beta2 adrenoceptor (unknown origin) expressed in Escherichia coli BL21 (DE3) assessed as dissociation rate constant by receptor chromatography
Target sequence in this assay (P07550 whole entry, the tested form may be a part): as the sequence (P07550 whole entry, looked up, the tested form may be a part) above

Mus musculus [14] = assay: Anti-asthmatic activity against ovalbumin-induced asthmatic mouse model assessed as decrease in IL-13 level in BALF administered orally once daily for 7 days by ELISA; type: functional, organism-based; details: dose 10-20 mg/kg, route po, time 7.0 day, DDE = dose-dependent effect
Mus musculus [15] = assay: Anti-asthmatic activity against ovalbumin-induced asthmatic mouse model assessed as decrease in IgE level in serum administered orally once daily for 7 days by ELISA; type: functional, organism-based; details: dose 10-20 mg/kg, route po, time 7.0 day, DDE = dose-dependent effect
Mus musculus [16] = assay: Decrease in CysLT receptor expression in bronchus in ovalbumin-induced asthmatic mouse model administered orally once daily for 7 days by Western blot analysis; type: functional; details: dose 10-20 mg/kg, route po, time 7.0 day, DDE = dose-dependent effect
Mus musculus [17] = assay: Anti-asthmatic activity against ovalbumin-induced asthmatic mouse model assessed as infiltration of inflammatory cells in the perivascular and peribronchiolar region of lungs at 10 to 20 mg/kg, po administered once daily for 7 days by H and E staining based light microscopic analysis; type: functional, organism-based; details: dose 10-20 mg/kg, time 7.0 day
Mus musculus [18] = assay: Increase in beta2 adrenoceptor expression in bronchus in ovalbumin-induced asthmatic mouse model administered orally once daily for 7 days by Western blot analysis; type: functional; details: dose 10-20 mg/kg, route po, time 7.0 day, DDE = dose-dependent effect
Mus musculus [19] = assay: Anti-asthmatic activity against ovalbumin-induced asthmatic mouse model assessed as decrease in IL-4 level in BALF administered orally once daily for 7 days by ELISA; type: functional, organism-based; details: dose 10-20 mg/kg, route po, time 7.0 day, DDE = dose-dependent effect

T1 sequence (Q13304 whole entry, the tested form may be a part): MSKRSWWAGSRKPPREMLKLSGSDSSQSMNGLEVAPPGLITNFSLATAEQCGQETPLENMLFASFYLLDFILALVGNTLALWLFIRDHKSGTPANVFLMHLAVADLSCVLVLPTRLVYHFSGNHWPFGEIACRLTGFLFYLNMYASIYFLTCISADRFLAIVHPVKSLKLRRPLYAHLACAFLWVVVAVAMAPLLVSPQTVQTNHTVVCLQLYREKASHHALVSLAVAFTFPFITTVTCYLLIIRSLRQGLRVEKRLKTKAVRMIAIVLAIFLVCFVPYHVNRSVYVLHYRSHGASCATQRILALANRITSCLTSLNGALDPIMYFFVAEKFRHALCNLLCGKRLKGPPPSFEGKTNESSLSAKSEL

SMILES | Retention time [1] | Kd [2] | Ka [3] | Retention time [5] | K [11] | Ka [12] | Kd [13] | also measured
CC(C)(O)c1ccccc1CC[C@@H](SCC1(CC(=O)[O-])CC1)c1cccc(/C=C/c2ccc3ccc(Cl)cc3n2)c1.[Na+] [MONTELUKAST SODIUM] | 8.7 min | 12.6 s⁻¹ | 5.18 10^5/M/s | – | – | – | – | –
CC1(C)[C@@H](O)CC[C@]2(C)[C@H]3C(=O)C=C4[C@@H]5C[C@@](C)(C(=O)O)CC[C@]5(C)CC[C@@]4(C)[C@]3(C)CC[C@@H]12 | – | – | – | – | – | – | – | Activity (Mus musculus [4]): Active
CN(C)C(=O)Oc1cc(OC(=O)N(C)C)cc(C(O)CNC(C)(C)C)c1 (stereo unspecified) | – | – | – | 4.1 min | – | – | – | Activity (Mus musculus [6]): Active; Activity (Mus musculus [7]): Active; Activity (Mus musculus [8]): Active; Activity (Mus musculus [9]): Active; Activity (Mus musculus [10]): Active
CNC(C)Cc1ccccc1OC (stereo unspecified) [METHOXYPHENAMINE] | – | – | – | 3.6 min | 0.5 10^4/M | 1.93 10^5/M/s | 0.98 s⁻¹ | –
CC1(C)[C@@H](O)CC[C@]2(C)[C@H]3C(=O)C=C4[C@@H]5C[C@@](C)(C(=O)NCCc6ccc(O)cc6)CC[C@]5(C)CC[C@@]4(C)[C@]3(C)CC[C@@H]12 | – | 17.2 s⁻¹ | 4.85 10^5/M/s | – | 6.57 10^4/M | 4.94 10^5/M/s | 7.52 s⁻¹ | Activity (Mus musculus [14]): Dde; Activity (Mus musculus [15]): Dde; inhibition (Mus musculus [16]): Dde; Activity (Mus musculus [17]): Active; Activity (Mus musculus [18]): Dde; Activity (Mus musculus [19]): Dde
CC(c1cc2ccccc2s1)N(O)C(N)=O (stereo unspecified) | 3.5 min | – | – | – | – | – | – | –
